# Test results taken from patent US20240317686A1, “RORyT MODULATOR, AND PREPARATION METHOD THEREFOR AND APPLICATION THEREOF” (SHANGHAI PHARMACEUTICALS HOLDING CO., LTD., priority 2020, published 2024).
# Molecular target: T1, RORγt (Homo sapiens, UniProt P51449)
# T1 construct: Prepare 4×RORgt-LBD in 1× buffer
# T1 sequence (P51449 269-508 limits assumed): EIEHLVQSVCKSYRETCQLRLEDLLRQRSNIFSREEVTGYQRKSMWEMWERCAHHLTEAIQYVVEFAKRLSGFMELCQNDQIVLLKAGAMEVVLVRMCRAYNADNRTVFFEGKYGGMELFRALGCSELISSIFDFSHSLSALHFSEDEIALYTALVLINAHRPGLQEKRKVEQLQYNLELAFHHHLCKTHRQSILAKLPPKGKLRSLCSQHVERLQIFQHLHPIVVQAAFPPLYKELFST
# Test: Fluorescence resonance energy transfer (FRET) assay of inhibitory activity on RORγt
# Type: biochemical
# Conditions: RORgt-LBD GST with SRC peptide
# Description: Fluorescence resonance energy transfer (FRET) experiment was performed to assay the inhibitory activity of the compound of the present invention on RORγt.
# 1) Preparation of DMSO stock solutions of the compounds: All compounds were dissolved in DMSO to prepare 10 mM stock solutions.
# 2) Compound storage: After the compound was dissolved in DMSO, the solution can be stored in a desiccator at room temperature for three months. For long-term storage, the solution should be put in a −20° C. refrigerator.
# 3) Preparation of working solution: • a) Positive control compound AZD0284: Starting from 500 µM, the solution was diluted serially by 3-folds with DMSO to obtain a 10-concentration gradient, each concentration with 3 replicate wells. 2 wells were pipetted. The gradiently diluted compound was diluted in a reaction buffer to obtain a 4× working solution (starting from 40 μM, diluted gradiently by 3-folds) of the positive control compound. • b) Compounds to be tested: Starting from 500 μM, the solution was diluted serially by 3-folds with DMSO to obtain a 10-concentration gradient, each concentration with 3 replicate wells. 2 wells were pipetted. The gradiently diluted compound was diluted in a reaction buffer to obtain a 4× working solution ([…], diluted gradiently by 3-folds) of the compounds to be tested. • c) Prepare a 4× negative control (8% DMSO). • d) Centrifuge the plate at 1000 rpm for 1 min.
# 1) Prepare 4× serially diluted compounds in 1× buffer.
# 2) Add 5 μl of the 4× serially diluted compound (prepared in step 1) to a 384 assay plate (784075, Greiner).
# 3) Prepare 4×RORgt-LBD in 1× buffer.
# 4) Add 5 μl of the 4×RORgt-LBD (prepared in step 3) to the 384 assay plate (prepared in step 2).
# 5) Incubate the assay plate for 15 min at room temperature, protected from light.
# 6) Prepare a 2× mixture of SRC, anti-GST Eu and streptavidin-d2 in 1× […].
# 7) Add 10 μl of the 2× mixture (prepared in step 6) to the 384 assay plate (prepared in step 4).
# 8) Centrifuge the 384 assay plates at 1000 g for 1 min.
# 9) Incubate for 3 h at room temperature, protected from light.
# 10) Read the plate at wavelengths of 665 nm and 615 nm on an Envision 2104 plate reader.
# Relative ratio (RR): Calculate the relative ratio (response value at 665 nm/response value at 615 nm-response value in blank background) of each well.
# Inhibition rate %=[1−(fluorescence detection value of the compound−fluorescence detection average of the positive compound)/(fluorescence detection average of the negative control−fluorescence detection average of the positive compound)]×100
# Calculate the IC50 and dose-response curve of the compound: The IC50 and dose-response curve of the compound were obtained via Graphpad 8.0 by calculating the inhibition rate of the compound and the log value of the compound concentration.
row,Compound,IC50
1,CN(C)S(=O)(=O)c1ccc(CC(=O)Nc2ccc(C(=O)C3(c4ccc(F)cc4)CC(F)(F)C3)nc2)cc1 [Compound I-67],100 to 1000 nM
2,"CNS(=O)(=O)c1ccc(CC(=O)Nc2ccc(C(=O)C(C)(C)c3ccccn3)nc2)cc1 [Compound I-63, N-(6-(2-methyl-2-(pyridin-2-yl)propionyl)pyridin-3-yl)-2-(4-(N-methylsulfamoyl)phenyl)acetamide]",10 to 50 nM
3,CCS(=O)(=O)c1ccc(CC(=O)Nc2ccc(C(=O)C(C)(C)c3ccc(Br)cc3)nc2)cc1 [Compound I-5],1 to 10 nM
4,CCS(=O)(=O)c1ccc(CC(=O)Nc2ccc(C(=O)C(C)(C)c3ccncc3)nc2)cc1 [Compound I-19],1 to 10 nM
5,CCS(=O)(=O)c1ccc(CC(=O)Nc2ccc(C(=O)C3(c4ccc(F)cc4)CC(F)(F)C3)nc2)cc1 [Compound I-66],1 to 10 nM
6,"CCS(=O)(=O)c1ccc(CC(=O)Nc2ccc(C(=O)C3(c4ccc(F)cn4)CC3)nc2)cc1 [Compound I-68, 2-(4-(ethylsulfonyl)phenyl)-N-(6-(1-(5-fluoropyridin-2-yl)cyclopropane-1-carbonyl)pyridin-3-yl)acetamide]",100 to 1000 nM
7,CCS(=O)(=O)c1ccc(CC(=O)Nc2ccc(C(=O)C(C)(C)n3cc(C)cn3)nc2)cc1 [Compound I-37],100 to 1000 nM
8,"CCS(=O)(=O)c1ccc(CC(=O)Nc2ccc(C(=O)C(C)(C)c3cn(C)cn3)nc2)cc1 [Compound I-72, 2-(4-(ethylsulfonyl)phenyl)-N-(6-(2-methyl-2-(1-methyl-1H-imidazol-4-yl)propionyl)pyridin-3-yl)acetamide]",50 to 100 nM
9,"CCS(=O)(=O)c1ccc(CC(=O)Nc2ccc(C(=O)C(C)(C)c3cccnc3)nc2)cc1 [Compound I-7, 2-(4-(ethylsulfonyl)phenyl)-N-(6-(2-methyl-2-(pyridin-3-yl)propanoyl)pyridin-3-yl)acetamide]",10 to 50 nM
10,"CCS(=O)(=O)c1ccc(CC(=O)Nc2ccc(C(=O)C3(c4cnn(C)c4)CC3)nc2)cc1 [Compound I-60, 2-(4-(ethylsulfonyl)phenyl)-N-(6-(1-(1-methyl-1H-pyrazol-4-yl)cyclopropane-1-carbonyl)pyridin-3-yl)acetamide]",100 to 1000 nM
11,"CCS(=O)(=O)c1ccc(CC(=O)Nc2ccc(C(=O)C(C)(C)c3ncccc3F)nc2)cc1 [Compound I-44, 2-(4-(ethylsulfonyl)phenyl)-N-(6-(2-(3-fluoropyridin-2-yl)-2-methylpropionyl)pyridin-3-yl)acetamide]",1 to 10 nM
12,CCC(C(=O)c1ccc(NC(=O)Cc2ccc(S(=O)(=O)CC)cc2)cn1)c1ccccn1 (centres unmarked) [Compound I-69],10 to 50 nM
13,CCS(=O)(=O)c1ccc(CC(=O)Nc2ccc(C(=O)C(C)(C)c3ccc(F)cn3)nc2)cc1 [Compound I-28],10 to 50 nM
14,CCS(=O)(=O)c1ccc(CC(=O)Nc2ccc(C(=O)C(C)(C)c3ccc(F)c(Br)c3)nc2)cc1 [Compound I-15],1 to 10 nM
15,"CCS(=O)(=O)c1ccc(CC(=O)Nc2ccc(C(=O)C(C)(C)c3ccc(C(F)(F)F)cn3)nc2)cc1 [Compound I-25, 2-(4-(ethylsulfonyl)phenyl)-N-(6-(2-methyl-2-(5-(trifluoromethyl)pyridin-2-yl)propionyl)pyridin-3-yl)acetamide]",1 to 10 nM
16,CCS(=O)(=O)c1ccc(CC(=O)Nc2ccc(C(=O)C(C)(C)c3ccc(F)cc3)nc2)cc1 [Compound I-4],1 to 10 nM
17,"CCS(=O)(=O)c1ccc(CC(=O)Nc2ccc(C(=O)C(C)(C)c3ccc(C)nc3)nc2)cc1 [Compound I-48, 2-(4-(ethylsulfonyl)phenyl)-N-(6-(2-methyl-2-(6-methylpyridin-3-yl)propionyl)pyridin-3-yl)acetamide]",50 to 100 nM
18,CCS(=O)(=O)c1ccc(CC(=O)Nc2ccc(C(=O)C(C)(C)c3ccnc(C)c3)nc2)cc1 [Compound I-29],1 to 10 nM

row,Compound,IC50
1,"CCS(=O)(=O)c1ccc(CC(=O)Nc2ccc(C(=O)C(C)(C)c3ccc(Cl)cc3)cn2)cc1 [Compound I-2, N-[5-[2-(4-chlorophenyl)-2-methyl-propionyl]-2-pyridyl]-2-(4-ethylsulfonylphenyl)acetamide]",10 to 50 nM
2,"CCS(=O)(=O)c1ccc(CC(=O)Nc2ccc(C(=O)C3(c4ccc(Cl)cc4)CC3)nc2)cc1 [Compound I-11, N-(6-(1-(4-chlorophenyl)cyclopropane-1-carbonyl)pyridin-3-yl)-2-(4-(ethylsulfonyl)phenyl)acetamide]",1 to 10 nM
3,"CCS(=O)(=O)c1ccc(CC(=O)Nc2ccc(C(=O)C(F)(F)c3ccc(Cl)cc3)nc2)cc1 [Compound I-39, N-(6-(2-(4-chlorophenyl)-2,2-difluoroacetyl)pyridin-3-yl)-2-(4-(ethylsulfonyl)phenyl)acetamide]",> 1000 nM
4,CCS(=O)(=O)c1ccc(CC(=O)Nc2ccc(C(=O)C(C)(C)c3cnc(C)nc3)nc2)cc1 [Compound I-55],100 to 1000 nM
5,"CCS(=O)(=O)c1ccc(CC(=O)Nc2ccc(C(=O)C(C)(C)c3cc(Br)ccn3)nc2)cc1 [Compound I-58, N-(6-(2-(4-bromopyridin-2-yl)-2-methylpropionyl)pyridin-3-yl)-2-(4-(ethylsulfonyl)phenyl)acetamide]",1 to 10 nM
6,CCS(=O)(=O)c1ccc(CC(=O)Nc2ccc(C(=O)C(C)(C)n3ccc(C)n3)nc2)cc1 [Compound I-38],> 1000 nM
7,"CCS(=O)(=O)c1ccc(CC(=O)Nc2ccc(C(=O)C(C)(C)c3ccc(Cl)cc3)nc2)nc1 [Compound I-24, N-(6-(2-(4-chlorophenyl)-2-methylpropionyl)pyridin-3-yl)-2-(5-(ethylsulfonyl)pyridin-2-yl)acetamide]",10 to 50 nM
8,CCS(=O)(=O)c1ccc(CC(=O)Nc2ccc(C(=O)C(C)(C)c3ccnc(C(F)(F)F)c3)nc2)cc1 [Compound I-52],1 to 10 nM
9,CCS(=O)(=O)c1ccc(CC(=O)Nc2ccc(C(=O)C(C)(C)c3cnn(CC(F)F)c3)nc2)cc1 [Compound I-34],100 to 1000 nM
10,"CCS(=O)(=O)c1ccc(CC(=O)Nc2ccc(C(=O)C3(c4ccc(Cl)cc4)CCC3)nc2)cc1 [Compound I-8, N-(6-(1-(4-chlorophenyl)cyclobutane-1-carbonyl)pyridin-3-yl)-2-(4-(ethylsulfonyl)phenyl)acetamide]",1 to 10 nM
11,"CCS(=O)(=O)c1ccc(CC(=O)Nc2ccc(C(=O)C(C)c3ccc(Cl)cc3)nc2)cc1 (centres unmarked) [Compound I-14, N-(6-(2-(4-chlorophenyl)propionyl)pyridin-3-yl)-2-(4-(ethylsulfonyl)phenyl)acetamide]",1 to 10 nM
12,CCS(=O)(=O)c1ccc(CC(=O)Nc2ccc(C(=O)C(C)(C)c3ccc(Cl)cn3)nc2)cc1 [Compound I-31],1 to 10 nM
13,CCS(=O)(=O)c1ccc(CC(=O)Nc2ccc(C(=O)C(C)(C)c3nccs3)nc2)cc1 [Compound I-36],10 to 50 nM
14,"CCS(=O)(=O)c1ccc(CC(=O)Nc2ccc(C(=O)C(C)(C)c3ccc(F)c(Cl)c3)nc2)nc1 [Compound I-26, N-(6-(2-(3-chloro-4-fluorophenyl)-2-methylpropionyl)pyridin-3-yl)-2-(5-(ethylsulfonyl)pyridin-2-yl)acetamide]",1 to 10 nM
15,"CCS(=O)(=O)c1ccc(CC(=O)Nc2ccc(C(=O)C(C)(C)c3cncc(Cl)c3)nc2)cc1 [Compound I-32, N-(6-(2-(5-chloropyridin-3-yl)-2-methylpropionyl)pyridin-3-yl)-2-(4-(ethylsulfonyl)phenyl)acetamide]",10 to 50 nM
16,CCS(=O)(=O)c1ccc(CC(=O)Nc2ccc(C(=O)C(C)(C)c3cccc(F)n3)nc2)cc1 [Compound I-61],1 to 10 nM
17,"CN(C)S(=O)(=O)c1ccc(CC(=O)Nc2ccc(C(=O)C(C)(C)c3ccccn3)nc2)cc1 [Compound I-64, 2-(4-(N,N-dimethylsulfamoyl)phenyl)-N-(6-(2-methyl-2-(pyridin-2-yl)propionyl)pyridin-3-yl)acetamide]",> 1000 nM
